Key:
[1] = Serum stability of Pip-PMO conjugates in 100% mouse serum (HPLC, MALDI-TOF); format: in vitro ADME; settings: 37° C.
Experimental: Serum stability may be measured by adding an aliquot of Pip-PMO (10 nmoles) to 100% mouse serum (100 μL) and incubating at 37° C. for 120 or 240 min. Each reaction is diluted with IM guanidinium-HCl solution (300 μL) and ice-cold acetonitrile (600 μL). Samples are mixed and kept at −20° C., and the precipitated serum proteins separated by centrifugation (13000 rpm, 5 min). After centrifugation, the supernatant is collected, lyophilized and the residue dissolved in water for analysis for peptide degradation by MALDI-TOF mass spectrometry and by reversed phase HPLC. HPLC conditions are: Column, C18 reversed-phase (250×4.6 mm); Solvent A, 0.1% TFA, Solvent B, 90% Acetonitrile, 10% solvent A; Gradient, 10%-50% solvent B in 25 minutes.
Serum stability was measured by adding an aliquot of Pip-PMO (10 nmoles) to 100% mouse serum (100 μL) and incubating at 37° C. for 120 or 240 min. Each reaction was diluted with IM guanidinium-HCl solution (300 μL) and ice-cold acetonitrile (600 μL). Samples were mixed and kept at −20° C., and the precipitated serum proteins separated by centrifugation (13000 rpm, 5 min). After centrifugation, the supernatant was collected, lyophilized and the residue dissolved in water for analysis for peptide degradation by MALDI-TOF mass spectrometry and by reversed phase HPLC. […]

dystrophin [2] = settings: single 25 mg/kg administration; cited from earlier work
dystrophin exon 23 = experiment: RT-PCR and quantitative real time PCR of exon skipping in mdx mouse tissues; format: in vivo, mdx mice; settings: diaphragm; single 12.5 mg/kg IV, 2 weeks
Text: (§1) Given the potency of Pip5e-PMO in heart tissue, the aim of altering the sequence of the hydrophobic core (whilst maintaining the 5-aa length) was to identify peptides that might be more efficient at lower doses. These modifications included inversion of the hydrophobic region (Pip6a), substitution of tyrosine by isoleucine (Pip6b), substitution of glutamine in the Pip6a sequence by displacement of the arginine immediately flanking the core in the first arginine-rich flanking region (Pip6e), and a scrambled hydrophobic core sequence (Pip6f). All Pip6 peptide-PMO conjugates were administered to mdx mice as single 12.5 mg/kg intravenous injections via the tail vein and tissues were harvested 2 weeks later and assessed for activity at both RNA and protein levels.
The RTPCR representative images (FIG. 34d) illustrate high exon skipping efficiency in all tissues analysed. This is better shown by Real Time PCR (qRT-PCR) results for the quadriceps, diaphragm and heart (FIG. 34c). The delta 23 transcript is normalised against ‘total dystrophin’ for each muscle group (n=3). […] Western blots (FIG. 34e) were performed on the tissues of each mouse and were quantified against a 50% and 10% C57BL10 control.
Four and a half month old to 5½ month old mdx mice were used in these experiments (n=3). […]

dystrophin [3] = experiment: Immunohistochemical staining and quantification of dystrophin in mdx mice after single IV injection; format: in vivo; settings: heart; mdx mice, single 12.5 mg/kg IV, 2 weeks; relative to laminin, normalised to C57BL10
Text: as §1
Immunohistochemical staining quantification (FIGS. 34a, b) was performed as previously described [Malerba, A., et al., Chronic systemic therapy with low-dose morpholino oligomers ameliorates the pathology and normalizes locomotor behavior in mdx mice. Mol Ther, 2011. 19(2): p. 345-54; Arechavala-Gomeza, V., et al., Immunohistological intensity measurements as a tool to assess sarcolemma-associated protein expression. Neuropathol Appl Neurobiol, 2010. 36(4): p. 265-74.] and was achieved by taking 4 representative frames of the dystrophin staining and correlating this with laminin staining for each section (n=3) of the quadriceps, diaphragm and heart for each peptide-PMO treatment. Untreated mdx and treated mdx mice were normalised to C57BL10 mice. This method allows comparison of the staining intensity of dystrophin at the sarcolemma relative to laminin for each treatment group. Intensity ratios are normalised to C57BL10 samples and each region of interest at the sarcolemma (120 regions for each treatment group) is plotted on a scatter graph. […]
Transverse sections of tissue samples were cut (8 μm thick) for the examination of dystrophin expression. For dystrophin visualisation and quantification, sections were co-stained with rabbit-anti-dystrophin (Abcam) and rat anti-laminin (Sigma), and detected by goat-anti-rabbit IgG Alexa 594 and goat-anti-rat IgG 488 secondary antibodies respectively (Invitrogen). […] Quantitative immunohistochemistry was performed as previously described [Malerba, A., et al., Chronic systemic therapy with low-dose morpholino oligomers ameliorates the pathology and normalizes locomotor behavior in mdx mice. […] For quantification, 4 representative frames of the dystrophin and correlating laminin were taken for each section (n=3) of the quadriceps, diaphragm and heart for each treatment. […] The minimum and maximum fluorescence intensity for 120 regions were recorded for each treatment. […]

RXRRBRRXRILFQYRXRBRXRBC [Pip5e-PMO]
stability in 100% mouse serum ([1]; 120 min (2 h), HPLC and MALDI-TOF): unchanged Pip-PMO conjugate | levels of PMO conjugated to fragments of peptide ([1]; 100% mouse serum, 120 minutes): very similar to that for (RXRRBR)2XB-PMO | dystrophin protein restoration in all muscle types, including heart (dystrophin [2]): high levels | Δ23 exon skipping by qRT-PCR (dystrophin exon 23): highest exon skipping | percent recovery score (% RS), dystrophin immunostaining (dystrophin [3]): 17.32%
